According to PubChem BioAssay (NCI):
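Step 1: Grow cells in 96-well plates. Step 2: Expose to compound for 48 hours at 5 concentrations. Step 3: Interpolate endpoints linearly; if unreached, use highest concentration. GI50: concentration for 50% inhibition of growth. TGI marks complete inhibition of growth.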

Legend:
Assay in all cases: DTP human tumour cell line panel, 48 h
786-0 renal = system: 786-0 renal
ACHN renal = system: ACHN renal
CCRF-CEM leukemia = system: CCRF-CEM leukemia
COLO 205 colon = system: COLO 205 colon
HL-60(TB) leukemia = system: HL-60(TB) leukemia
LOX IMVI melanoma = system: LOX IMVI melanoma
NCI/ADR-RES ovarian = system: NCI/ADR-RES ovarian
PC-3 prostate = system: PC-3 prostate
SK-MEL-2 melanoma = system: SK-MEL-2 melanoma
SNB-19 CNS = system: SNB-19 CNS

SMILES	GI50 (786-0 renal)	TGI (786-0 renal)	GI50 (ACHN renal)	TGI (ACHN renal)	GI50 (CCRF-CEM leukemia)	TGI (CCRF-CEM leukemia)	GI50 (COLO 205 colon)	TGI (COLO 205 colon)	GI50 (HL-60(TB) leukemia)	TGI (HL-60(TB) leukemia)	GI50 (LOX IMVI melanoma)	TGI (LOX IMVI melanoma)	GI50 (NCI/ADR-RES ovarian)	TGI (NCI/ADR-RES ovarian)	GI50 (PC-3 prostate)	TGI (PC-3 prostate)	GI50 (SK-MEL-2 melanoma)	TGI (SK-MEL-2 melanoma)	GI50 (SNB-19 CNS)	TGI (SNB-19 CNS)
N#CC(C#N)=Cc1c(-c2ccccc2)[nH]c2ccccc12	8.55 µM	> 64.1 µM	7.07 µM	> 55.9 µM	2.41 µM	43.8 µM	1.76 µM	15 µM	1.62 µM	> 20.2 µM	3.27 µM	> 47.3 µM	0.82 µM	> 45.2 µM	2.9 µM	> 70.8 µM	19.1 µM	> 70.6 µM	5.71 µM	> 100 µM
Cc1csc(/C=N/NC(=O)c2nnn(-c3ccnc4c(C(F)(F)F)cccc34)c2C)c1	> 100 µM	> 100 µM	63.8 µM	> 100 µM	56.8 µM	> 100 µM	34.2 µM	> 100 µM	50.3 µM	> 100 µM	72.2 µM	> 100 µM	> 100 µM	> 100 µM	41.1 µM	> 100 µM	> 100 µM	> 100 µM	97.3 µM	> 100 µM
CCCCN(CCCC)c1ccc(C(=N)c2ccc(N(C)C)cc2)cc1	1.1 µM	2.55 µM	1.04 µM	2.38 µM	0.544 µM	3.24 µM	0.455 µM	1.65 µM	0.336 µM	1.16 µM	0.536 µM	2.02 µM	0.335 µM	1.27 µM	0.409 µM	1.67 µM	0.829 µM	2.24 µM	0.951 µM	2.37 µM
O=C(/C=C/c1ccccc1)c1c[nH]c2ccccc2c1=O	4.01 µM	17.2 µM	3.01 µM	11.7 µM	2.88 µM	9.97 µM	2.39 µM	4.68 µM	2.81 µM	10.6 µM	2.88 µM	12 µM	2.93 µM	13 µM	5.63 µM	33.1 µM	2.42 µM	5.72 µM	4.68 µM	20.5 µM
COc1cc(/C=N/Nc2ncnc3c2cnn3C(C)C)ccc1O	10.8 µM	> 25 µM	5.95 µM	> 25 µM	8.07 µM	> 23.1 µM	12.2 µM	> 25 µM	4.07 µM	11.9 µM	3.79 µM	> 13.7 µM	6.95 µM	> 25 µM	5.07 µM	> 25 µM	6.82 µM	18.7 µM	17 µM	> 25 µM
NC(=O)c1cc(-c2ccncc2)cc(-c2ccccc2)c1N	15.9 µM	> 25 µM	7.4 µM	> 25 µM	> 25 µM	> 25 µM	22.1 µM	> 25 µM	> 25 µM	> 25 µM	> 22.7 µM	> 25 µM	> 21 µM	> 25 µM	> 22.3 µM	> 25 µM	> 5.2 µM	> 17 µM	> 25 µM	> 25 µM
Cc1cc(=O)oc2c(CN3CCCCC3)c(O)ccc12		> 100 µM		> 100 µM		> 100 µM		> 100 µM		> 100 µM		> 100 µM		> 100 µM		> 100 µM		> 100 µM		> 100 µM
COc1ccc(C[n+]2c3ccccc3n3c4ccc(N)cc4ccc32)c(OC)c1OC	34.9 µM	> 100 µM	36.2 µM	> 100 µM	4.28 µM	45.7 µM	1.9 µM	5.65 µM	3.09 µM	11.7 µM	10.7 µM	36.3 µM	> 100 µM	> 100 µM	1.82 µM	13.7 µM	3.78 µM	14.8 µM	1.42 µM	15.8 µM
C=C1C(=O)O[C@H]2[C@H]1CC/C(Cn1cc(CNCCc3c[nH]c4ccc(Cl)cc34)nn1)=C\CC[C@@]1(C)O[C@@H]21	2.89 µM	10.2 µM	10.2 µM	22.2 µM	1.72 µM	5.08 µM	1.96 µM	3.75 µM	1.12 µM	3.46 µM	3.56 µM	16 µM	> 100 µM	> 100 µM	8.96 µM	27 µM	10.3 µM	26.1 µM	8.69 µM	32.4 µM
Cc1c(C)c2c(c(C)c1NC(=O)/C=C\C(=O)O)CCC(C)(CCCC(C)CCCC(C)CCCC(C)C)O2 (centres undefined)	1.69 µM	3.06 µM	1.7 µM	3.07 µM	1.79 µM	6.11 µM	1.75 µM	3.54 µM	1.38 µM	6.82 µM	1.87 µM	3.69 µM	2.54 µM	7.46 µM	1.38 µM	2.91 µM	1.86 µM	3.68 µM	1.94 µM	3.47 µM
Cc1onc(-c2c(F)cccc2Cl)c1-c1ncc(-c2ccc(Cl)cc2)o1	5.14 µM	> 100 µM	5.15 µM	> 100 µM	3.81 µM	> 100 µM	4.11 µM	> 100 µM	4.02 µM	> 100 µM			5.08 µM	> 100 µM	4.21 µM	> 100 µM			6.59 µM	> 100 µM
Oc1c(C(Nc2cccc3ccccc23)c2ccccc2)ccc2cccnc12 (centres undefined)	3.37 µM	76.3 µM	3.55 µM	28.6 µM			4.17 µM	17.7 µM	1.93 µM	8.4 µM	1.92 µM	13.7 µM	2.17 µM	8.29 µM	5.16 µM	> 100 µM	6.58 µM	> 100 µM	5.64 µM	> 100 µM
